Reference: article PMC5038272, “Glutamate Racemase Is the Primary Target of β-Chloro-D-Alanine in Mycobacterium tuberculosis” (Antimicrobial Agents and Chemotherapy, 2016)

How the values were obtained:
alanine racemase (EcAlr) [1] = molecular target: T1, alanine racemase (EcAlr) (Escherichia coli, UniProt P0A6B4); test: time-dependent inactivation kinetics, partition ratio, dialysis, intact ESI-MS; assay type: biochemical
T1 construct: gene alr; recombinant EcAlr

alanine racemase (BsAlr) [2] = molecular target: T2, alanine racemase (BsAlr) (Bacillus subtilis, UniProt P10725); test: time-dependent inactivation kinetics (kinact/Ki […] ^−[…] s^−[…]), partition ratio, dialysis; assay type: biochemical
T2 construct: gene alr1; recombinant BsAlr
T2 sequence (P10725 1-389): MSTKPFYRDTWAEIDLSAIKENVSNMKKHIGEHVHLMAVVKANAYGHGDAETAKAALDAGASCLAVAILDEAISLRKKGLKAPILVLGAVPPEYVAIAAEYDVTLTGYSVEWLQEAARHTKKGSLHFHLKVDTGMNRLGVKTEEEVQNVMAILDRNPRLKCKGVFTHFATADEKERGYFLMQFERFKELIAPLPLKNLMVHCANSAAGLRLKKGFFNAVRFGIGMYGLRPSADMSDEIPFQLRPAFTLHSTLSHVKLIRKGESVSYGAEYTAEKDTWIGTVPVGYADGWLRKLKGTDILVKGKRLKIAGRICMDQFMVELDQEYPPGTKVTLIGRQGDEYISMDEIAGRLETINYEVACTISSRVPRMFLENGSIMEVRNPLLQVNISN

[3] = molecular target: T3, glutamate racemase (BsMurI) (Bacillus subtilis, UniProt P94556); test: time-dependent inactivation kinetics (kinact/Ki), dialysis, intact ESI-MS (+[…]), tryptic LC-MS/MS; assay type: biochemical; conditions: read-out: time-dependent inactivation kinetics (kinact/Ki), dialysis, intact ESI-MS (+87)
T3 construct: gene racE; recombinant BsMurI
T3 sequence (P94556 whole entry): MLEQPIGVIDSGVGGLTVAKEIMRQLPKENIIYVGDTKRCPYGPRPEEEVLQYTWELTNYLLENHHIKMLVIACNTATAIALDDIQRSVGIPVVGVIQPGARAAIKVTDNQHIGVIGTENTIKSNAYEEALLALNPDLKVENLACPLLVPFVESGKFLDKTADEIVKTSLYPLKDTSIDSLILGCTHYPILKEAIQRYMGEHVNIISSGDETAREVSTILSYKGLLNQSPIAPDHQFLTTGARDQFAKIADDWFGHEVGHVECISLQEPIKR

alanine racemase (MtAlr) [4] = molecular target: T4, alanine racemase (MtAlr) (Mycobacterium tuberculosis, UniProt P9WQA9); test: time-dependent inactivation kinetics (poor inactivator, kinact/Ki […] ^−[…] s^−[…]), partition ratio […] dialysis, intact ESI-MS; assay type: biochemical
T4 construct: gene alr
T4 sequence (P9WQA9 whole entry): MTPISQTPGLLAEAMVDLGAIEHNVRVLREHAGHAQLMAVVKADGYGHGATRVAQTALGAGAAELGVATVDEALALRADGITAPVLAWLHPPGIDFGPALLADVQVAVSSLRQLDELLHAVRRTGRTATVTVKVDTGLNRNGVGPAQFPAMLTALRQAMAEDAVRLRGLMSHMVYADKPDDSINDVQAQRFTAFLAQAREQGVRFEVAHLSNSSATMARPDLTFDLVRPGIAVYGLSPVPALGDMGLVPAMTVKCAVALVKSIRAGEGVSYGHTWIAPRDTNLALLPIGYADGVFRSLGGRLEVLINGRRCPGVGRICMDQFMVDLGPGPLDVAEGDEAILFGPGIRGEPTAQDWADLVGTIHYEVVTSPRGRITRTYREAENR

[5] = molecular target: T3, glutamate racemase (BsMurI); test: intact ESI-MS covalent adduct and tryptic LC-MS/MS; assay type: binding
alanine racemase (MtAlr) [6] = molecular target: T4, alanine racemase (MtAlr); test: partition ratio of inactivation, purified enzyme; assay type: biochemical
alanine racemase (BsAlr) [7] = molecular target: T2, alanine racemase (BsAlr); test: partition ratio of inactivation, purified enzyme; assay type: biochemical
alanine racemase (EcAlr) [8] = molecular target: T1, alanine racemase (EcAlr); test: partition ratio of inactivation, purified enzyme; assay type: biochemical

T1 sequence (P0A6B4 whole entry): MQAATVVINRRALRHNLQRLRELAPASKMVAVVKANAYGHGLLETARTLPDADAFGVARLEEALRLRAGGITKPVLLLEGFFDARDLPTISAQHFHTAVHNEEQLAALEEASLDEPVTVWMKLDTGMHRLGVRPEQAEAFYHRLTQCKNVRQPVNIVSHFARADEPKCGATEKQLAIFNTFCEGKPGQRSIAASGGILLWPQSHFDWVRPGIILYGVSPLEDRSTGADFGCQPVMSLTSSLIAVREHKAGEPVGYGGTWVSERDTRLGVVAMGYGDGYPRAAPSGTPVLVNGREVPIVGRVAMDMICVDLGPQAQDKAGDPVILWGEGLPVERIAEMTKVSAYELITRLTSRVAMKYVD

`N[C@H](CCl)C(=O)O` [BCDA, β-chloro-D-alanine] gave a KI (inactivation) (alanine racemase (EcAlr) [1]) of 130 to 230 µM, a KI (inactivation) (alanine racemase (BsAlr) [2]) of 130 to 230 µM and a kinact/KI [3] of 2.7 M⁻¹ s⁻¹. For the same compound, the KI (inactivation) (alanine racemase (MtAlr) [4]) was 130 to 230 µM.
`N[C@@H](CCl)C(=O)O` [BCLA, β-chloro-L-alanine] was tested, and the “intact ESI-MS covalent adduct and tryptic LC-MS/MS” value [5] was “BCLA modified BsMurI predominantly at C74, the cysteine residue responsible for deprotonation of an incoming D-Glu substrate”.
In the case of `CC(=O)OC[C@@H](N)C(=O)O` [OADS, O-acetyl–D-serine], the “partition ratio of inactivation, purified enzyme” value (from here on “partition ratio of inactivation”) (alanine racemase (MtAlr) [6]) is reported as “partition ratios were compared for the structurally and mechanistically similar Alr inhibitor O-acetyl–D-serine (OADS)”, the “partition ratio of inactivation” value (alanine racemase (BsAlr) [7]) is reported as “partition ratios were compared for the structurally and mechanistically similar Alr inhibitor O-acetyl–D-serine (OADS)” and the “partition ratio of inactivation” value (alanine racemase (EcAlr) [8]) is reported as “partition ratios were compared for the structurally and mechanistically similar Alr inhibitor O-acetyl–D-serine (OADS)”.
